Structures are written as SMILES. A value given as a limit tells only on which side of the number the result lay.

The subject of one assay is IL1-β release upon NLRP3 activation in peripheral blood mononuclear cells (PBMC). Put plainly: PBMC IC50 Determination Assay. The format is cell-based. Particulars: Homo sapiens, PBMC, read-out: PBMCs, IC50, μM. As to the method: PBMC IC50 Determination Assay
The compounds of the present disclosure were tested for their inhibitory activity against IL1-β release upon NLRP3 activation in peripheral blood mononuclear cells (PBMC).
Isolated cells were seeded into the wells of a 96-well plate and incubated for 3 h with lipopolysaccharide (LPS). Following medium exchange, the compounds of the present disclosure were added (a single compound per well) and the cells were incubated for 30 min. Next, the cells were stimulated either with ATP (5 mM) or nigericin (10 μM) for 1 h and the cell culture media from the wells were collected for further analysis.
The release of IL-1β into the media was determined by a quantitative detection of IL-1β in 5 the media using an IL-1β enzyme-linked immunosorbent assay (ELISA) Ready-SET-Go!, eBioscience cat. […] Subsequently, plates were blocked with blocking buffer for 1 h at room temperature (rt) and after washing with a buffer (PBS with 0.05% Tween-20) incubated with protein standard and culture media. […] Plates were washed and incubated with HRP-streptavidin for 30 min at rt and washed again. The signal was developed after addition of 3,39,S,59-tetramethylbenzidine-peroxidase (TMB) until color appeared and the reaction was stopped by 2 M H2SO4. A microplate spectrophotometer (BioTek) was used to detect signals with 450 nm. The detection range of IL-1β ELISA was […].
By IC50 is commonly meant the midpoint of a concentration-inhibition curve. On to `COC(=O)C(Cc1cnn(C)c1)NC(=O)Nc1c2c(cc3c1CCC3)CCC2` (stereo not shown) [Example 2Q, Methyl 2-{[(1,2,3,5,6,7-hexahydro-s-indacen-4-yl)carbamoyl]amino}-3-(1-methyl-1H-pyrazol-4-yl)propanoate], for which the IC50 was 2.4 µM.
Still for that read-out and setting: as for `COC(=O)CC[C@@H](NC(=O)Nc1c2c(cc3c1CCC3)CCC2)C(=O)OC` [Example 2S, 1,5-dimethyl(2R)-2-{[(1,2,3,5,6,7-hexahydro-s-indacen-4-yl)carbamoyl]amino}pentanedioate], the figure is 3.5 µM.
The same measure, in the same setting: under `CCOC(=O)CNC(=O)Nc1cc2c(c3c1CCCC3)CCC2` [Example 2T, Ethyl 2-[({1H,2H,3H,6H,7H,8H,9H-cyclopenta[a]naphthalen-5-yl}carbamoyl)amino] acetate] stands 3.1 µM.

The assay is the same for the next values; noted with them: Homo sapiens; PBMC from buffy coats, LPS 3 h, compound 30 min, then ATP (5 mM) or nigericin (10 μM) for 1 h; IL-1β in media by ELISA; read-out: PBMCs, IC50.
As to `COC(=O)[C@@H](CCSC)NC(=O)Nc1c2c(cc3c1CCC3)CCC2` [Example 2O, Methyl(2R)-2-{[(1,2,3,5,6,7-hexahydro-s-indacen-4-yl)carbamoyl]amino}-4-(methylsulfanyl)butanoate], the IC50 worked out at 3.2 µM.
On the same count and under the same terms, as for `O=C(Nc1c2c(cc3c1CCC3)CCC2)N[C@H](Cc1cccnc1)C(=O)OCC1CC1` [Example 2OO, cyclopropylmethyl(2R)-2-{[(1,2,3,5,6,7-hexahydro-s-indacen-4-yl)carbamoyl]amino}-3-(pyridin-3-yl)propanoate], the figure is 0.47 µM; as for `COC(=O)[C@@H](Cc1cccc(NC(C)=O)c1)NC(=O)Nc1c2c(cc3c1CCC3)CCC2` [Example 2P, Methyl(2R)-3-(3-acetamidophenyl)-2-{[(1,2,3,5,6,7-hexahydro-s-indacen-4-yl)carbamoyl]amino}propanoate], 0.14 µM.
Still for that read-out and setting: under `O=C(Nc1c2c(cc3c1CCC3)CCC2)N[C@H](Cc1cccnc1)C(=O)OC1CCCC1` [Example 2PP, cyclopentyl(2R)-2-{[(1,2,3,5,6,7-hexahydro-s-indacen-4-yl)carbamoyl]amino}-3-(pyridin-3-yl)propanoate] stands 0.24 µM.
The same measure, in the same setting: under `COC(=O)[C@@H](CC#N)NC(=O)Nc1c2c(cc3c1CCC3)CCC2` [Example 2QQ, methyl(2R)-3-cyano-2-{[(1,2,3,5,6,7-hexahydro-s-indacen-4yl)carbamoyl]amino}propanoate] stands below 10 µM; under `COC(=O)[C@@H](Cc1cccc(N2CCCC2=O)c1)NC(=O)Nc1c2c(cc3c1CCC3)CCC2` [Example 2R, Methyl(2R)-2-{[(1,2,3,5,6,7-hexahydro-s-indacen-4-yl)carbamoyl]amino}-3-[3-(2-oxopyrrolidin-1-yl)phenyl]propanoate], 0.33 µM; under `CCOC(=O)[C@@H](Cc1cccnc1)NC(=O)Nc1c2c(cc3c1CCC3)CCC2` [Example 2RR, ethyl(2R)-2-{[(1,2,3,5,6,7-hexahydro-s-indacen-4-yl)carbamoyl]amino}-3-(pyridin-3-yl)propanoate], 1.7 µM.
For the molecule `O=C(Nc1c2c(cc3c1CCC3)CCC2)N[C@H](Cc1ccccc1)C(=O)O` [Example 2SS, (2R)-2-{[(1,2,3,5,6,7-hexahydro-s-indacen-4-yl)carbamoyl]amino}-3-phenylpropanoic acid], the IC50 came out at 14 µM.
Still for that read-out and setting: as for `COC(=O)C(Cn1cc(C)cn1)NC(=O)Nc1c2c(cc3c1CCC3)CCC2` (stereo not shown) [Example 2TT, Methyl 2-{[(1,2,3,5,6,7-hexahydro-s-indacen-4-yl)carbamoyl]amino}-3-(4-methyl-1H-pyrazol-1-yl)propanoate], the figure is 14 µM; as for `COC(=O)[C@@H](Cc1cccc(Nc2cc[nH]n2)c1)NC(=O)Nc1c2c(cc3c1CCC3)CCC2` [Example 2U, Methyl(2R)-2-{[(1,2,3,5,6,7-hexahydro-s-indacen-4-yl)carbamoyl]amino}-3-{3-[(1H-pyrazol-3-yl)amino]phenyl}propanoate], 0.31 µM.
Same read-out and setting: under `CCOC(=O)[C@@H](Cc1cccnc1)NC(=O)Nc1c(C(C)C)cccc1C(C)C` [Example 2UU, Ethyl (2R)-2-({[2,6-bis(propan-2-yl)phenyl]carbamoyl}amino)-3-(pyridin-3-yl)propanoate] stands 21 µM; under `O=C(Nc1c2c(cc3c1CCC3)CCC2)N[C@H](Cc1cccc(-c2cc[nH]n2)c1)C(=O)O` [Example 2V, (2R)-2-{[(1,2,3,5,6,7-hexahydro-s-indacen-4-yl)carbamoyl]amino}-3-[3-(1H-pyrazol-3-yl)phenyl]propanoic acid], 0.52 µM; under `COC(=O)C[C@@H](NC(=O)Nc1c2c(cc3c1CCC3)CCC2)C(=O)OC` [Example 2W, 1,4-dimethyl(2R)-2-{[(1,2,3,5,6,7-hexahydro-s-indacen-4-yl)carbamoyl]amino}butanedioate], 2.9 µM.
With `COC(=O)[C@@H](Cc1cncc(OC)c1)NC(=O)Nc1c2c(cc3c1CCC3)CCC2` [Example 2WW, Methyl (2R)-2-{[(1,2,3,5,6,7-hexahydro-s-indacen-4-yl)carbamoyl]amino}-3-(5-methoxypyridin-3-yl)propanoate], the IC50 stood at 0.45 µM.
Same read-out and setting: as for `CCOC(=O)CNC(=O)Nc1c2c(cc3c1CCC3)CCC2` [Example 2X, ethyl 2-{[(1,2,3,5,6,7-hexahydro-s-indacen-4-yl)carbamoyl]amino}acetate], the figure is 1.5 µM; as for `CCOC(=O)C(Cc1nc(C)no1)NC(=O)Nc1c2c(cc3c1CCC3)CCC2` (stereo not shown) [Example 2XX, Ethyl 2-{[(1,2,3,5,6,7-hexahydro-s-indacen-4-yl)carbamoyl]amino}-3-(3-methyl-1,2,4-oxadiazol-5-yl)propanoate], 5.1 µM.
Same read-out and setting: as for `COC(=O)[C@@H](Cc1cccnn1)NC(=O)Nc1c2c(cc3c1CCC3)CCC2` [Example 2YY, Methyl (2R)-2-{[(1,2,3,5,6,7-hexahydro-s-indacen-4-yl)carbamoyl]amino}-3-(pyridazin-3-yl)propanoate], the figure is 3.3 µM; as for `COC(=O)[C@@H](Cc1ccc(O)cc1)NC(=O)Nc1c2c(cc3c1CCC3)CCC2` [Example 2Z, methyl(2R)-2-{[(1,2,3,5,6,7-hexahydro-s-indacen-4-yl)carbamoyl]amino}-3-(4-hydroxyphenyl)propanoate], 0.1 µM; as for `CCOC(=O)C(Cc1cnoc1)NC(=O)Nc1c2c(cc3c1CCC3)CCC2` (stereo not shown) [Example 2ZZ, Ethyl 2-{[(1,2,3,5,6,7-hexahydro-s-indacen-4-yl)carbamoyl]amino}-3-(1,2-oxazol-4-yl)propanoate], 3.3 µM.

(Values after patent publication US11345669B2, “Urea derivatives and methods of use thereof” (NodThera Limited, priority 2017, dated 2022).)
